Where two headings read alike, the source gives them in different places.
Assays:
[1] = system: triple negative breast cancer tumor; test: Barcode analysis in live and dead tumor cells after injection of liposome mixes; assay type: in vivo, BALB/c female mice; conditions: 5%, 1% or 0.1% of ETD liposome mixes; 48 hours post injection; patent regards it as likely artifact
Source text: FIGS. 1A-C: Detection of barcodes from liposome mixes with equal relative drug concentrations. Bar charts showing the potency of gemcitabine, cisplatin and doxorubicin against triple negative breast cancer tumors when the drugs are provided at (1A) 5%, (1B) 1%, and (1C) 0.1% of the effective therapeutic dose (ETD). Potency of the drugs was defined as the ratio of the amount of a barcode in dead cells to the amount of that barcode in live cells.
Each drug has its own specific effective therapeutic dose […], and in order to test efficacy it is reasonable that each liposome mix (a mix of all three types of liposomes to be injected together) should have the same relative amount of each drug. That is, in order to determine an ideal dose, batches of mixed liposomes were generated in which all three drugs were present in a concentration that was either 5%, 1% or 0.1% of the effective therapeutic dose. Table 2 provides the amounts (in ul) of each liposome batch that were added to the mix in order to provide each total dose.
Cell from a triple negative breast cancer tumor were transplanted to the fat pad of BALB/c female mice and allowed to grow to form tumors in the mice. The mice were separated into 3 groups and then each group was injected with the 5%, 1% or 0.1% liposome mixes. […]

4T1 cells [2] = conditions: cited from earlier work
4T1 cells [3] = conditions: cited from earlier work; remark: listed apart in the source

| SMILES | Effectiveness relative to the other two drugs [1] | Potency (ratio of barcode in dead cells to barcode in live cells), ranking [1] | Effect on tumor growth (4T1 cells [2]; at later time points) | Effect on tumor growth (4T1 cells [2]; within the first couple of days of treatment) | Sensitivity of 4T1 cells (4T1 cells [3]) | Resistance of 4T1 cells (4T1 cells [3]) |
| --- | --- | --- | --- | --- | --- | --- |
| Nc1ccn([C@@H]2O[C@H](CO)[C@@H](O)C2(F)F)c(=O)n1 [Gemcitabine] | > 10 fold | most effective treatment | not be effective | retards tumor growth |  |  |
| N.N.[Cl][Pt][Cl] [cisplatin] |  |  |  |  | highly sensitive |  |
| COc1cccc2c1C(=O)c1c(O)c3c(c(O)c1C2=O)C[C@@](O)(C(=O)CO)C[C@@H]3O[C@H]1C[C@H](N)[C@H](O)[C@H](C)O1 [doxorubicin] |  |  |  |  | less so | become resistant |

Source: patent US11788146B2, “Methods for therapeutics prescreening in bodily fluids” (BARCODE DIAGNOSTICS LTD., priority 2017, dated 2023)
